Experimental data published in EP1019392B1, “TRICYCLIC AMIDES USEFUL FOR INHIBITION OF G-PROTEIN FUNCTION AND FOR TREATMENT OF PROLIFERATIVE DISEASES” (SCHERING CORPORATION, priority 1995, dated 1997).
Structures can show the parent of a compound that is named as a salt. Where two headings read alike, the source gives them in different places.

Columns and labels:
[1] = tested on: Normal human HEPM fibroblasts; experiment: Cell Mat Assay, normal cell mat; assay type: cell-based; settings: normal monolayer
[2] = target: T1, farnesyl protein transferase (FPT) (Rattus norvegicus, UniProt Q02293+Q04631); experiment: In vitro enzyme assay: inhibition of farnesyl protein transferase (transfer of [3H]farnesyl to Ras-CVLS); assay type: biochemical; settings: partially purified rat brain FPT, Ras-CVLS
T1 construct: were partially purified from rat brain by ammonium sulfate fractionation followed by Q-Sepharose; from tissue; host or cells: rat brain
Experimental: • 1. In vitro enzyme assays: Inhibition of farnesyl protein transferase and geranylgeranyl protein transferase. […] Human farnesyl protein transferase was also expressed in E. coli, using cDNA clones encoding both the a and b subunits. […] Human farnesyl protein transferase was partially-purified from the soluble protein fraction of E. coli as described above. […] Two forms of val^12-Ha-Ras protein were prepared as substrates for these enzymes, differing in their carboxy terminal sequence. One form terminated in cysteine-valine-leucine-serine (Ras-CVLS) the other in cystein-valine-leucine-leucine (Ras-CVLL). Ras-CVLS is a substrate for the farnesyl protein transferase while Ras-CVLL is a substrate for geranylgeranyl protein transferase I. The cDNAs encoding these proteins were constructed so that the proteins contain an amino-terminal extension of 6 histidine residues. Both proteins were expressed in Escherichia coli and purified using metal chelate affinity chromatography. The radiolabelled isoprenyl pyrophosphate substrates, [^3H]farnesyl pyrophosphate and [^3H]geranylgeranyl pyrophosphate, were purchased from DuPont/New England Nuclear. […] The reaction was allowed to proceed for 30 minutes at room temperature and then stopped with 0.5 ml of 4% sodium dodecyl sulfate (SDS) followed by 0.5 ml of cold 30% TCA. Samples were allowed to sit on ice for 45 minutes and precipitated Ras protein was then collected on GF/C filter paper mats using a Brandel cell harvester. […] Percent inhibition was calculated relative to the DMSO vehicle control. The geranylgeranyl protein transferase I assay was essentially identical to the farnesyl protein transferase assay described above, with two exceptions: [^3H]geranylgeranylpyrophosphate replaced farnesyl pyrophosphate as the isoprenoid donor and Ras-CVLL was the protein acceptor. […] Cell-Based Assay: Transient expression of val^12-Ha-Ras-CVLS and val^12-Ha-Ras-CVLL in COS monkey kidney cells: Effect of farnesyl protein transferase inhibitors on Ras processing and on disordered cell growth induced by transforming Ras. COS monkey kidney cells were transfected by electroporation with the plasmid pSV-SPORT (Gibco/BRL) containing a cDNA insert encoding either Ras-CVLS or Ras-CVLL, leading to transient overexpression of a Ras substrate for either farnesyl protein transferase or geranylgeranyl protein transferase I, respectively (see above). Following electroporation, cells were plated into 6-well tissue culture dishes containing 1.5 ml of Dulbecco's-modified Eagle's media (GIBCO, Inc.) supplemented with 10% fetal calf serum and the appropriate farnesyl protein transferase inhibitors. After 24 hours, media was removed and fresh media containing the appropriate drugs was re-added. 48 hours after electroporation cells were examined under the microscope to monitor disordered cell growth induced by transforming Ras. Cells expressing transforming Ras become more rounded and refractile and overgrow the monolayer, reminiscent of the transformed phenotype. Cells were then photographed, washed twice with 1 ml of cold phosphate-buffered saline (PBS) and removed from the dish by scraping with a rubber policeman into 1 ml of a buffer containing 25 mM Tris, pH 8.0; 1 mM ethylenediamine tetraacetic acid; 1 mM phenylmethylsulfonyl fluoride; […] leupeptin; and 0.1 mM pepstatin. Cells were lysed by homogenization and cell debris was removed by centrifugation at 2000 x g for 10 min. Cellular protein was precipitated by addition of ice-cold trichloroacetic acid and redissolved in […] of SDS-electrophoresis sample buffer. […] Proteins resolved on the gels were electroblotted onto nitrocellulose membranes for immunodetection. […] After washing, membranes were incubated for one hour at room temperature with a 1:5000 dilution of secondary antibody, rabbit anti-rat IgG conjugated to horseradish peroxidase, in PBS containing 1% fetal calf serum.

[3] = tested on: T24-BAG4 human bladder carcinoma cells expressing an activated H-ras gene; experiment: Cell Mat Assay, T24 tumor cells; assay type: cell-based; settings: read-out: Tumor (T-24) IC50
[4] = tested on: DLD-1 (human colon carcinoma cells, ATCC # CCL 221); experiment: In Vivo Anti-Tumor Studies, subcutaneous DLD-1 tumors; set-up: species or system athymic nu/nu female mice; settings: Mus musculus, DLD-1, po, QID, 4 weeks, range over the listed compounds; for inhibition in vivo at 10 mg/kg: 10 mg/kg p.o.; for inhibition in vivo at 50 mg/kg: 50 mg/kg p.o.
Description: Tumor cells (5 X 10^5 to 8 X 10^6) of DLD-1 (human colon carcinoma cells, ATCC # CCL 221) are innolculated subcutaneously into the flank of 5-6 week o;d athymic nu/nu female mice.

[5] = tested on: Ras-CVLS processing in COS monkey kidney cells; experiment: COS cell assay: inhibition of Ras-CVLS processing (Western blot); assay type: cell-based
Description: • 1. In vitro enzyme assays: Inhibition of farnesyl protein transferase and geranylgeranyl protein transferase. Both farnesyl protein transferase (FPT) and geranylgeranyl protein transferase (GGPT) I were partially purified from rat brain by ammonium sulfate fractionation followed by Q-Sepharose (Pharmacia, Inc.) anion exchange chromatography essentially as described by Yokoyama et al (Yokoyama, K., et al., (1991), A protein geranylgeranyltransferase from bovine brain: Implications for protein prenylation specificity, Proc. Natl. Acad. Sci USA 88: 5302-5306, the disclosure of which is incorporated herein by reference thereto). Human farnesyl protein transferase was also expressed in E. coli, using cDNA clones encoding both the a and b subunits. The methods used were similar to those published (Omer, C. et al., (1993), Characterization of recombinant human farnesyl protein transferase: Cloning, expression, farnesyl diphosphate binding, and functional homology with yeast prenyl-protein transferases, Biochemistry 32:5167-5176). Human farnesyl protein transferase was partially-purified from the soluble protein fraction of E. coli as described above. […] Two forms of val^12-Ha-Ras protein were prepared as substrates for these enzymes, differing in their carboxy terminal sequence. One form terminated in cysteine-valine-leucine-serine (Ras-CVLS) the other in cystein-valine-leucine-leucine (Ras-CVLL). Ras-CVLS is a substrate for the farnesyl protein transferase while Ras-CVLL is a substrate for geranylgeranyl protein transferase I. The cDNAs encoding these proteins were constructed so that the proteins contain an amino-terminal extension of 6 histidine residues. Both proteins were expressed in Escherichia coli and purified using metal chelate affinity chromatography. The radiolabelled isoprenyl pyrophosphate substrates, [^3H]farnesyl pyrophosphate and [^3H]geranylgeranyl pyrophosphate, were purchased from DuPont/New England Nuclear. Several methods for measuring farnesyl protein transferase activity have been described (Reiss et al 1990, Cell 62: 81; Schaber et al 1990, J. Biol. Chem. 265: 14701; Manne et al 1990, PNAS 87: 7541; and Barbacid & Manne 1993, U.S. Patent No. 5,185,248). […] The reaction was allowed to proceed for 30 minutes at room temperature and then stopped with 0.5 ml of 4% sodium dodecyl sulfate (SDS) followed by 0.5 ml of cold 30% TCA. Samples were allowed to sit on ice for 45 minutes and precipitated Ras protein was then collected on GF/C filter paper mats using a Brandel cell harvester. Filter mats were washed once with 6% TCA, 2% SDS and radioactivity was measured in a Wallac 1204 Betaplate BS liquid scintillation counter. Percent inhibition was calculated relative to the DMSO vehicle control. The geranylgeranyl protein transferase I assay was essentially identical to the farnesyl protein transferase assay described above, with two exceptions: [^3H]geranylgeranylpyrophosphate replaced farnesyl pyrophosphate as the isoprenoid donor and Ras-CVLL was the protein acceptor. […] Cell-Based Assay: Transient expression of val^12-Ha-Ras-CVLS and val^12-Ha-Ras-CVLL in COS monkey kidney cells: Effect of farnesyl protein transferase inhibitors on Ras processing and on disordered cell growth induced by transforming Ras. COS monkey kidney cells were transfected by electroporation with the plasmid pSV-SPORT (Gibco/BRL) containing a cDNA insert encoding either Ras-CVLS or Ras-CVLL, leading to transient overexpression of a Ras substrate for either farnesyl protein transferase or geranylgeranyl protein transferase I, respectively (see above). Following electroporation, cells were plated into 6-well tissue culture dishes containing 1.5 ml of Dulbecco's-modified Eagle's media (GIBCO, Inc.) supplemented with 10% fetal calf serum and the appropriate farnesyl protein transferase inhibitors. After 24 hours, media was removed and fresh media containing the appropriate drugs was re-added.

[6] = tested on: SW620-BAG human colon carcinoma cells expressing an activated K-ras gene; experiment: Cell Mat Assay, SW620 tumor cells; assay type: cell-based
[7] = tested on: DLD-1-BAG human colon carcinoma cells expressing as activated K-ras gene; experiment: Cell Mat Assay, DLD-1 tumor cells; assay type: cell-based
[8] = Homo sapiens, SW-620, Mat assay

SMILES | IC50 [1] [nM] | IC50 [3] [nM] | inhibition in vivo at 10 mg/kg [4] [%] | inhibition in vivo at 50 mg/kg [4] [%] | IC50 ([2]; Table 1, read-out: FPT IC50) [nM] | IC50 ([1]; Homo sapiens, Fibroblast) [nM] | IC50 ([3]; Homo sapiens) [nM] | IC50 ([5]; Primates, COS) [nM] | IC50 ([7]; Homo sapiens, DLD-1, Mat assay) [nM] | other results
O=C(Cc1cc[n+]([O-])cc1)N1CCC(=C2c3ncc(Br)cc3CCc3cc(Cl)cc(Br)c32)CC1 (single isomer, unassigned) [Example 7A] | > 25000 | < 1600 | 7 to 50 | 35.4 to 83 |  |  |  |  |  | IC50 ([2]; FPT IC50, Table 1): > 100 nM; IC50 [5]: > 1000 nM
O=C(Cc1cc[n+]([O-])cc1)N1CCN([C@@H]2c3ncc(Br)cc3CCc3cc(Cl)cc(Br)c32)CC1 [Example 11B] | > 25000 | < 1600 |  |  | > 95 |  |  |  |  | IC50 ([6]; Mat assay): 18000 nM; IC50 ([7]; Mat assay): 8000 nM
NC(=O)N1CCC(CC(=O)N2CCC(C3c4ccc(Cl)cc4C=Cc4cc(Br)cnc43)CC2)CC1 (stereo not drawn) [Example 1] |  |  | 7 to 50 | 35.4 to 83 | < 34 | > 25000 | < 1600 |  |  | 
O=C(Cc1cc[n+]([O-])cc1)N1CCN(C2c3ncc(Br)cc3CCc3cc(Cl)cc(Br)c32)CC1 (racemic) [Example 11] |  |  |  |  | 2 |  |  | < 250 |  | 
NC(=O)N1CCC(CC(=O)N2CCN([C@H]3c4ccc(Cl)c(Br)c4CCc4cc(Br)cnc43)CC2)CC1 [Example 6] |  |  | 7 to 50 | 35.4 to 83 | 3.1 |  | < 1600 | 40 | 4000 | IC50 [6, 8]: 6240 nM
O=C(Cc1cc[n+]([O-])cc1)N1CCN(C2c3ccc(Cl)c(Br)c3CCc3cc(Br)cnc32)CC1 (stereo not drawn) [5 • HCl salt] |  |  |  |  | 3.8 |  |  | 10 |  | 
NC(=O)N1CCC(CC(=O)N2CCC([C@@H]3c4ncc(Br)cc4CCc4cc(Cl)cc(Br)c43)CC2)CC1 [Example 10A] | 8000 | < 1600 |  |  |  |  |  |  |  | IC50 ([6]; Mat assay): 1600 nM
O=C(Cc1cc[n+]([O-])cc1)N1CCC(C2c3ccc(Cl)c(Br)c3CCc3cc(Br)cnc32)CC1 (stereo not drawn) [14A • HCl salt] |  |  |  |  | < 3.1 |  |  |  |  | IC50 [5]: 15 nM
O=C(Cc1cc[n+]([O-])cc1)N1CCN(C2c3ncc(Br)cc3CCc3cc(Cl)cc(Cl)c32)CC1 (single isomer, unassigned) [Example 19] |  |  |  |  | < 3.8 | > 25000 | < 1600 |  | < 1600 | IC50 [6, 8]: 6250 nM
NC(=O)N1CCC(CC(=O)N2CCN([C@@H]3c4ccc(Cl)cc4CCc4cc(Br)cnc43)CC2)CC1 [Example 17] |  |  |  |  | 43 | > 25000 | 1600 | 350 | 6250 | 
